Consider 20 compounds from patent US10653688B2, “6-(6-membered heteroaryl and aryl)isoquinolin-3-yl carboxamides and preparation and use thereof” (Samumed, LLC, priority 2017, dated 2020).

Experiment [1] relates to Wnt activity (SW480 colon carcinoma cells stably expressing the Sp5-Luc reporter gene). The experiment in a line: Wnt activity screening assay (Sp5-Luc reporter gene assay). Format: cell-based, human. Particulars: Homo sapiens; for EC50: 36 to 48 hours; for inhibition at 10 µM: read-out: percent inhibition at 10 μM (given for EC50 >10 μM), 10 μM. The gist of the method:
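SW480 colon carcinoma cells stably carrying a lentiviral luciferase reporter driven by an Sp5 promoter with eight TCF/LEF sites, plated at 4,000 cells/well in DMEM with 1% FBS. Compound exposure for 36–48 h at 37 °C, then luminescence read. Signals normalized to DMSO; EC50 from four-parameter nonlinear fit.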
(In a reporter assay the amount or activity of a reporter protein is the signal.)

For experiment [2], the system named is IL-6 in human peripheral blood mononuclear cells (huPBMCs). The experiment in a line: IL-6 inhibition in LPS-stimulated human peripheral blood mononuclear cells (HTRF). Format: cell-based. Particulars: Homo sapiens, PBMC; for EC50: LPS 50 ng/mL, 22 hours, IL-6 HTRF; for inhibition at 10 µM: read-out: percent inhibition at 10 μM (given for EC50 >10 μM), LPS, IL-6, 10 μM. An outline of the steps: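 Fresh normal human PBMCs at 1×10e6 cells/mL in RPMI with 1% FBS received compound, then 50 ng/mL E. coli 0111:B4 LPS 2 h later, and were incubated a further 22 h at 37° C. IL-6 read by HTRF (665/620 nm ratio), normalized to DMSO; EC50 from 4-parameter fit.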
(TR-FRET usually uses a lanthanide donor and a delayed reading to cut background.)

The test system of experiment [3] is Cyclin D1 phosphorylation at Threonine 286 (pCcnD1) over total Cyclin D1 in SH-SY5Y cells. The experiment in a line: phosphoCcnD1 to total CcnD1 ratio (PTT) cell-based assay, western blot. Particulars: Homo sapiens, 48 hours. The procedure: Representative compounds were screened using the cell-based assay procedure for the ratio of signal of Cyclin D1 phosphorylation at Threonine 286 (pCcnD1) over the signal of total Cyclin D1 (CcnD1) (abbreviated: phosphoCcnD1 to total CcnD1 ratio, or PTT) as described below.
SH-SY5Y cells (human neuroblastoma, Sigma, Saint-Louis, Mo.) were cultured in 1:1 DMEM/F-12 medium supplemented with 15% FBS, 1% non-essential amino acid, and 1% penicillin/streptomycin.
SH-SY5Y cells were seeded at 1.0×10^5 cells in 1 mL per well in a 24-well plate. After cell adherence was confirmed, DMSO-resuspended Samumed compounds were dispensed to eight wells as a serial dilution from 10 μM to 4.6 nM final concentration in medium, or at 1.1 μM to 4.6 nM with particularly potent compounds. Cells were exposed to Samumed compounds for 48 hours in a 37° C. incubator.
Wells of compound-treated cells were visually checked for cell death before being washed with 500 μL per well of 1×DPBS supplemented with phosphatase inhibitor diluted to 1×. Cells were then lysed with 90 μL 1×RIPA buffer supplemented with phosphatase and protease inhibitors (each diluted to a final 1×). After scraping, 60 μL of cell lysate from each sample was used to dilute 4×LDS (ThermoFisher, NP0007) and 20×XT reducing agent (Bio-Rad, 1610792), each diluted to 1× final. All samples were then denatured via boiling at 95° C. Denatured cell sample lysates were directly tested for pCcnD1 and total CcnD1 signal by Western blot techniques and analysis. Specifically, denatured lysates were directly transferred to NuPAGE™ 4-12% Bis-Tris Midi Protein Gels, 26-well gels (ThermoFisher, WG1403BOX). Gels were transferred to […] nitrocellulose membranes via iBlot™ Transfer Stack, nitrocellulose, regular size (ThermoFisher, IB301031). Membranes were blocked with 1×TBS, 5% milk (Bio-Rad, 1706404XTU) before being probed for overnight with either anti-pCcnD1 primary antibody (Cell Signaling Technology, 2978S) or anti-total CcnD1 primary antibody (Cell Signaling Technology, 3300S) diluted 1:500 in 1×TBS-0.05% Tween-20, 3% milk. After overnight incubation in primary antibodies, membranes were washed profusely with 1×TBS-0.05% Tween-20 and probed for 1 hour with secondary anti-rabbit/HRP conjugate (Cell Signaling Technology, 7074S) diluted 1:1000 in 1×TBS-0.05% Tween-20, 3% milk. After incubation in secondary antibody, membranes were washed with 1×TBS-0.05% Tween-20.
Probed and washed membranes were developed for pCcnD1 or total CcnD1 signal with SuperSignal™ West Femto Maximum Sensitivity Substrate (ThermoFisher, 34096) using the ChemoDoc-It^2 (UVP) and related GelDocIt imaging software. Blots were then stripped, blocked, stained with anti-β-actin/HRP conjugate antibody (Cell Signaling Technology, 5125S), developed, and imaged for housekeeping β-actin protein control as previously described. Densitometry was measured with ImageJ (NIH) and signal was used to plot, draw the curves fitting, and determine the EC50 values in GraphPad Prism for tested Samumed compounds.
Background: In western blotting, separated proteins are transferred to a membrane and probed.

Bounds are passed on as bounds.

Usually EC50 stands for the concentration at which the effect is half-maximal. For `O=C(Nc1cc2cc(-c3cccnc3)ccc2cn1)C1CC1` [Compound 6, N-(6-(Pyridin-3-yl)isoquinolin-3-yl)cyclopropanecarboxamide], the EC50 in experiment [1] came out at 1.1 µM; in experiment [2], 1.03 µM; in experiment [3], 276 nM.
Turning to `O=C(CN1CCCC1)Nc1cc2cc(-c3cccnc3)ccc2cn1` [Compound 7, N-(6-(Pyridin-3-yl)isoquinolin-3-yl)-2-(pyrrolidin-1-yl)acetamide], the results for the EC50 in experiment [1] and in experiment [2] were 3.84 µM and 9.26 µM, respectively.
Turning to `CN1CCC(C(=O)Nc2cc3cc(-c4cccnc4)ccc3cn2)CC1` [Compound 8, 1-Methyl-N-(6-(pyridin-3-yl)isoquinolin-3-yl)piperidine-4-carboxamide], the values for the EC50 in experiment [1], in experiment [2] and in experiment [3] were 1.28 µM, 1.97 µM and 36 nM, respectively.
The inhibition is the relative decrease from the control value, in per cent. Take `O=C(Nc1cc2cc(-c3cccnc3)ccc2cn1)C12CCN(CC1)CC2` [Compound 9, N-(6-(Pyridin-3-yl)isoquinolin-3-yl)quinuclidine-4-carboxamide]: in experiment [1], the EC50 is greater than 10 µM and the inhibition at 10 µM is 11.8%. Further, in experiment [2], the EC50 is greater than 10 µM and the inhibition at 10 µM is 3.9%.
Consider `O=C(CN1CCOCC1)Nc1cc2cc(-c3cccnc3)ccc2cn1` [Compound 10, 2-Morpholino-N-(6-(pyridin-3-yl)isoquinolin-3-yl)acetamide], for which, in experiment [1], the EC50 is greater than 10 µM and the inhibition at 10 µM was 15.3%. In experiment [2], the EC50 was greater than 10 µM and the inhibition at 10 µM came out at 3.7%.
In the case of `CN1CCN(CC(=O)Nc2cc3cc(-c4cccnc4)ccc3cn2)CC1` [Compound 11, 2-(4-Methylpiperazin-1-yl)-N-(6-(pyridin-3-yl)isoquinolin-3-yl)acetamide], the 50% effective concentration (EC50) in experiment [1] and in experiment [2] was greater than 10 µM throughout. Also, the inhibition at 10 µM was 10.8% in experiment [1] and 8.5% in experiment [2].
As for `CN1CCCN(CC(=O)Nc2cc3cc(-c4cccnc4)ccc3cn2)CC1` [Compound 12, 2-(4-Methyl-1,4-diazepan-1-yl)-N-(6-(pyridin-3-yl)isoquinolin-3-yl) acetamide], in experiment [1], the EC50 was greater than 10 µM and the inhibition at 10 µM was 39.8%. For the same compound, the EC50 in experiment [2] is 9.86 µM.
For the compound `CN1CCN(C[C@H]2CC[C@H](C(=O)Nc3cc4cc(-c5cncc(F)c5)ccc4cn3)CC2)CC1` [Compound 17, trans-N-(6-(5-Fluoropyridin-3-yl)isoquinolin-3-yl)-4-((4-methylpiperazin-1-yl)methyl)cyclohexane-1-carboxamide], the EC50 came to 6.73 µM in experiment [1] and 9.35 µM in experiment [2].
For `CN1CCN(CC(=O)Nc2cc3cc(-c4ccc(F)nc4)ccc3cn2)CC1` [Compound 21, N-(6-(6-Fluoropyridin-3-yl)isoquinolin-3-yl)-2-(4-methylpiperazin-1-yl) acetamide], in experiment [1], the EC50 was greater than 10 µM and the inhibition at 10 µM is 5.5%. Moreover, in experiment [2], the EC50 is greater than 10 µM and the inhibition at 10 µM stood at 6.3%.
As to `CN1CCC(C(=O)Nc2cc3cc(-c4cncc(N5CCCC5)c4)ccc3cn2)CC1` [Compound 50, 1-Methyl-N-(6-(5-(pyrrolidin-1-yl)pyridin-3-yl)isoquinolin-3-yl)piperidine-4-carboxamide], the half-maximal effective concentration (EC50) in experiment [1] came out at 0.312 µM; in experiment [2], 8.95 µM.
In the case of `[2H]c1nc([2H])c(-c2ccc3cnc(NC(=O)CN4CCN(C)CC4)cc3c2)c([2H])c1[2H]` [Compound 61, 2-(4-Methylpiperazin-1-yl)-N-(6-(pyridin-3-yl-d4)isoquinolin-3-yl)acetamide], in experiment [1], the EC50 was greater than 10 µM and the inhibition at 10 µM was found to be 19.6%. For the same compound, in experiment [2], the EC50 is greater than 10 µM and the inhibition at 10 µM was determined as 26.4%.
Regarding `[2H]c1nc([2H])c(-c2ccc3cnc(NC(=O)CN4CCOCC4)cc3c2)c([2H])c1[2H]` [Compound 62, 2-Morpholino-N-(6-(pyridin-3-yl-d4)isoquinolin-3-yl)acetamide], in experiment [1], the EC50 was greater than 10 µM and the inhibition at 10 µM is 18.4%. In experiment [2], the EC50 is greater than 10 µM and the inhibition at 10 µM came out at 8%.
Regarding `O=C(CN1CCOCC1)Nc1cc2cc(-c3ccnnc3)ccc2cn1` [Compound 67, 2-morpholino-N-(6-(pyridazin-4-yl)isoquinolin-3-yl)acetamide], in experiment [1], the EC50 was greater than 10 µM and the inhibition at 10 µM stood at 26.5%. Besides, in experiment [2], the EC50 is greater than 10 µM and the inhibition at 10 µM was determined as 6.3%.
As for `O=C(Nc1cc2cc(-c3cnccn3)ccc2cn1)[C@H]1C[C@H](N2CCOCC2)C1` [Compound 69, trans-3-Morpholino-N-(6-(pyrazin-2-yl)isoquinolin-3-yl)cyclobutane-1-carboxamide], in experiment [1], the EC50 is greater than 10 µM and the inhibition at 10 µM was found to be 9%. Besides, in experiment [2], the 50% effective concentration (EC50) is greater than 10 µM and the inhibition at 10 µM came to 4.4%.
Turning to `O=C(Nc1cc2cc(-c3cnccn3)ccc2cn1)[C@H]1CC[C@H](N2CCOCC2)CC1` [Compound 71, trans-4-Morpholino-N-(6-(pyrazin-2-yl)isoquinolin-3-yl)cyclohexane-1-carboxamide], in experiment [1], the EC50 is greater than 10 µM and the inhibition at 10 µM is 32.1%. Besides, in experiment [2], the EC50 is greater than 10 µM and the inhibition at 10 µM amounted to 11%.
Regarding `O=C(Nc1cc2cc(-c3cnccn3)ccc2cn1)[C@H]1CC[C@H](CN2CC(F)C2)CC1` [Compound 72, trans-4-((3-Fluoroazetidin-1-yl)methyl)-N-(6-(pyrazin-2-yl)isoquinolin-3-yl)cyclohexane-1-carboxamide], in experiment [1], the EC50 was greater than 10 µM and the inhibition at 10 µM turned out to be 35.7%. Moreover, in experiment [2], the EC50 is greater than 10 µM and the inhibition at 10 µM is 10%.
Take `CN1CCN(C[C@H]2CC[C@H](C(=O)Nc3cc4cc(-c5cnccn5)ccc4cn3)CC2)CC1` [Compound 73, trans-4-((4-Methylpiperazin-1-yl)methyl)-N-(6-(pyrazin-2-yl)isoquinolin-3-yl)cyclohexane-1-carboxamide]: the EC50 was greater than 10 µM in experiment [1] and 0.32 µM in experiment [2]. The inhibition at 10 µM in experiment [1] turned out to be 33.3%.
Take `O=C(Nc1cc2cc(-c3cnccn3)ccc2cn1)C1CCN(CCF)CC1` [Compound 77, 1-(2-Fluoroethyl)-N-(6-(pyrazin-2-yl)isoquinolin-3-yl)piperidine-4-carboxamide]: in experiment [1], the EC50 is greater than 10 µM and the inhibition at 10 µM is 36.4%. For the same compound, in experiment [2], the EC50 was greater than 10 µM and the inhibition at 10 µM amounted to 9.6%.
Regarding `O=C(Nc1cc2cc(-c3cnccn3)ccc2cn1)C1CCN(C2COC2)CC1` [Compound 78, 1-(Oxetan-3-yl)-N-(6-(pyrazin-2-yl)isoquinolin-3-yl)piperidine-4-carboxamide], in experiment [1], the EC50 was greater than 10 µM and the inhibition at 10 µM is 28.1%. Also, in experiment [2], the EC50 was greater than 10 µM and the inhibition at 10 µM amounted to 8.9%.
With `CC(C)Nc1cncc(-c2ccc3cnc(NC(=O)C4CCN(C)CC4)cc3c2)n1` [Compound 88, N-(6-(6-(Isopropylamino)pyrazin-2-yl)isoquinolin-3-yl)-1-methylpiperidine-4-carboxamide], the EC50 in experiment [1] was found to be 0.068 µM; in experiment [2], 0.4 µM.
